{"source": "patent US9789102B2", "about": "“H3 receptor antagonist for use in the treatment of alzheimer's disease” (SANOFI, priority 2012, dated 2017)", "key": {"[1]": {"tested_on": "protein tau hyperphosphorylation on AT-8 (pSer199-202/Thr205) epitope", "experiment": "AT8 immunohistochemistry with quantitative image analysis after six months in food", "assay_type": "in vivo, THY-Tau22 mice", "details": "for protein tau phosphorylation on AT-8 epitope in cortex, vs vehicle: n=9; for decrease of the number of AT8-positive neuronal cells, cortex: significant", "from_the_text": "(§1) 2-(Cyclohexylmethyl)-N-{2-[(2S)-1-methylpyrrolidin-2-yl]ethyl}-1,2,3,4-tetrahydroisoquinoline-7-sulfonamide difumarate monohydrate was administrated as a supplement in food at doses of 0.00034%, 0.0034% and 0.034% for six months in THY-Tau22 and wild type mice as follows: • Tg Veh (n=17) • Tg Active Ingredient—0.034% (n=17) • Tg Active Ingredient—0.0034% (n=17) • Tg Active Ingredient—0.00034% (n=17) • WT Veh (n=17) • WT Active Ingredient—0.034% (n=17) • WT Active Ingredient—0.0034% (n=17) • WT Active Ingredient—0.00034% (n=17) • WT groups treated with Active Ingredient are not used in the biochemical and histological studies.\nAfter mice were decapitated, brains were removed and one hemibrain (used for histopathological studies) was immersion-postfixed for seven days at 4° C. with 4% formaldehyde (Carlo Erba/code 415691). The other hemibrain was prepared for biochemical quantitative measurements.\nPost-fixed hemibrains were incubated in phosphate-buffered saline (PBS, P 3813-10PAK, Sigma), transferred to a 20% sucrose solution (code 27480.294—Prolabo) for 48 hours at 4° C. to ensure good cryopreservation of tissues during subsequent freezing. For freezing, hemibrains were immersed for one minute in isopentane solution (Ref. No. 24872-323—Prolabo) cooled with dry ice to between −25° C. and −30° C. and then stored at −25° C.\nThe entire hemibrains were cut with a cryostat (Microm, HM560). Serial sagittal brain tissue sections were collected onto Superfrost plus microscope glass slides (VWR) and then stored at −20° C. (sections of 20 μm of thickness), or placed in PBS-sodium azide 0.1% (S-2002, Sigma) containing wells to avoid any contamination and stored at 4° C. (sections of 30 μm of thickness).\nHyperphosphorylated microtubule-associated protein tau is the major component of the paired helical filament. Phosphorylation-dependent anti-tau antibodies can be used to identify specific amino acids that are phosphorylated in tau from normal brain and AD brain. For example, the monoclonal antibody, AT8, is widely used. Antibody that can detect the phosphorylated serine 202 and the phosphorylated threonine 205 epitopes of phosphorylated tau (AT8 epitope (M. Goedert et al., Neuroscience Letters, (1995) 189, 3, pp. 167-169)).\nAn immunohistochemical protocol using the AT8 antibody and based upon the avidin-biotin horseradish peroxidase method was applied on 30 μm free-floating sections. The detailed protocol is as follows:\nThe following reagents are used: 0.1M PBS buffer in 1 liter of H2O (2.23 g of NaH2PO4, 2H2O (Prolabo Ref. No. 33 616.262), 29 g of Na2HPO4, 12 H2O (Prolabo Ref. No. 28 028.298), 9 g of NaCl (Prolabo Ref. No. 27 810.295)); PBS-Triton (0.15%) buffer Triton×100 (Sigma Ref. No. 23 479-9) (PBS-T) (1 l of 0.1M PBS buffer, 1.5 ml of Triton); 0.2M PBS buffer in 1 liter of H2O (4.46 g of NaH2PO4, 2H2O, 58 g of Na2HPO4, 12H2O, 18 g of NaCl); 30% H2O2 (Sigma Ref. No. H 1009); 3,3′-diaminobenzidine tetrahydrochloride (Sigma Ref. No. D9015, 100 mg stored at −20° C.); Vectastain® ABC Kit (Ref. No. PK 4000, Vector); BSA: bovine serum albumin (Sigma Ref. No. A8022).\nSections were preincubated for 3×10 minutes in 0.1 M-PBS-0.15% triton solution and then in 0.1M-PBS-1.5% hydrogen peroxide-50% methanol at room temperature for 30 minutes. After 3 washings in 0.1 M-PBS-0.15% triton, they were further incubated in blocking buffer [i.e., in BSA diluted at 10% in 0.01 M PBS] for 30 minutes. They were incubated at room temperature overnight with mouse anti-human PHF-Tau monoclonal antibody (clone AT8, Thermo Science, MN1020, dilution 1/500 in 0.1M PBS-0.05% Triton) and then with the secondary antibody (anti-mouse IgG biotinylated whole antibody from goat, Amersham, RPN1177, dilution 1/500 in 0.1M PBS-0.05% Triton) for 1 h 30. They were finally incubated in peroxidase-coupled avidin complex (Vectastain ABC kit, Vector Laboratories, dilution 1/400 in 0.1M PBS) for 30 minutes. […]"}, "[2]": {"tested_on": "THY-Tau22 transgenic mice", "experiment": "Cognitive deficits after 6 months of treatment", "assay_type": "in vivo", "details": "clinically relevant doses"}, "[3]": {"tested_on": "MIP-1α gene expression", "experiment": "mRNA expression of MIP-1α in hippocampus by QPCR after six months in food", "assay_type": "in vivo, THY-Tau22 mice", "from_the_text": "as §1\n1. […] To assess the quality and concentration of the total RNA, 1 μl was analyzed on an RNA LabChip (Agilent) using a 2100 Bioanalyser, (Agilent Technologies). […]\n2 μg of total RNA from each mouse was reverse transcribed with oligo (dT)16 and random primers using a High-Capacity cDNA Archive Kit (Applied Biosystems), following the manufacturer recommendations. […] For real time PCR, the housekeeping gene R.L37A, was amplified using a quantitect primer assay from Qiagen (QT00252266) and MIP1 alpha was amplified using the following primers (5′-[…]-3′) SEQ ID NO: 1; (5′-[…]-3′) SEQ ID NO: 2. […]"}}, "data": [{"smiles": "CN1CCC[C@H]1CCNS(=O)(=O)c1ccc2c(c1)CN(CC1CCCCC1)CC2", "note": "[2-(cyclohexylmethyl)-N-{2-[(2S)-1-methylpyrrolidin-2-yl]ethyl}-1,2,3,4-tetrahydroisoquinoline-7-sulfonamide difumarate monohydrate]", "values": [{"measurement": "protein tau phosphorylation on AT-8 epitope in cortex, vs vehicle", "setting": "[1]; 0.0034% in food, six months", "value": "statistical significant decrease"}, {"measurement": "intensity of AT8-immunostaining within neuronal cell bodies and fibers, cortex", "setting": "[1]; 0.0034% in food, six months, qualitatively observed", "value": "decrease"}, {"measurement": "decrease of the number of AT8-positive neuronal cells, cortex", "setting": "[1]; 0.0034% in food, six months", "value": "−47", "unit": "%"}, {"measurement": "protein tau phosphorylation on AT-8 epitope in cortex, vs vehicle", "setting": "[1]; 0.034% in food, six months", "value": "statistical significant decrease"}, {"measurement": "decrease of the number of AT8-positive neuronal cells, cortex", "setting": "[1]; 0.034% in food, six months", "value": "−32", "unit": "%"}, {"measurement": "AT8-positive neuronal cell number in other ROIs (amygdala, CA1 and dentate gyrus hippocampal subareas)", "setting": "[1]; six months in food", "value": "No significant decrease"}, {"measurement": "cognitive deficits", "setting": "[2]", "value": "decreases cognitive deficits"}, {"measurement": "MIP-1α gene expression in hippocampus, vs vehicle", "setting": "[3]; 0.00034% in food", "value": "statistical significant decrease"}, {"measurement": "MIP-1α gene expression in hippocampus, vs vehicle", "setting": "[3]; 0.0034% in food", "value": "statistical significant decrease"}]}]}
